Data as given in US20020156094A1, “Sulfonamide interleukin-1beta converting enzyme inhibitors” (Warner-Lambert Company, priority 1996, published 2002).
Values joined by “and” are separate entries in the source; they are usually repeats but may differ in a detail not shown here. Equal values may be shown once.

Legend:
[1] = molecular target: T1, Ich-2 (Caspase-4) (Homo sapiens, UniProt P49662); assay: Ich-2 (Caspase-4) Colorimetric Dose-Response (IC50) Assay; type: biochemical; details: enzyme 64 nM, substrate Ac-Leu-Glu-Val-Asp-pNA
T1 sequence (P49662 81-270 limits assumed): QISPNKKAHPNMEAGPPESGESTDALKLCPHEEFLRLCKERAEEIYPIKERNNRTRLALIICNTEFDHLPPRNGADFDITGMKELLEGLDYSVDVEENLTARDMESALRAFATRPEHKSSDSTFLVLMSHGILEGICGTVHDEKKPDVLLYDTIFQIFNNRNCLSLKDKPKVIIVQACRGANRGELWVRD
T1 sequence (P49662 290-377 limits assumed): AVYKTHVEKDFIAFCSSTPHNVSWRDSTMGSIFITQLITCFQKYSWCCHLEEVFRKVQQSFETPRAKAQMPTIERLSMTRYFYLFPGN
Procedure: (§1) Diluted inhibitor stocks are prepared by two-fold serial dilution from a primary stock whose concentration is selected (based on screening results or on prior attempts at IC50 evaluation) to achieve approximately 95% inhibition in the most concentrated well. Aliquots of each dilution are transferred to a microtitre plate in triplicate.
(§2) ICE enzyme is diluted to approximately 24 nM in HGE buffer (100 mM HEPES pH 7.5, 0.5 mM EDTA, 20% glycerol, 0.1% Bovine Serum Albumin (BSA)), and activated by adding dithiothreitol (DTT) to a final concentration of 5 mM. The activated enzyme is then aliquoted into wells containing inhibitor or vehicle, and the plate is preincubated for 60 minutes at ambient temperature. Substrate (Ac-Tyr-Val-Ala-Asp-pNA) is added to each well to a final concentration of 50 μM, and plates are placed in the microtitre plate-reader thermostated to 25° C. Beginning 5 minutes after addition of substrate, absorbance (405 nm) of wells is monitored for 1 hour, and activity is calculated as the mean rate of change in absorbance during this interval.
Ich-2 (Caspase-4) Colorimetric Dose-Response (IC50) Assay
Inhibition of Ich-2 enzyme is assayed as described above for ICE, except that enzyme is used at 64 nM, and 60 µM of the Ich-2-specific substrate Ac-Leu-Glu-Val-Asp-pNA is used instead of the ICE substrate Ac-Tyr-Val-Ala-Asp-pNA.

[2] = molecular target: T2, ICE (interleukin-1β converting enzyme, Caspase-1) (Homo sapiens, UniProt P29466); assay: ICE Colorimetric Dose-Response (IC50) Assay; type: biochemical; details: ICE approx. 24 nM, 60 min preincubation, 50 μM Ac-Tyr-Val-Ala-Asp-pNA, 25° C.
T2 sequence (P29466 120-297 limits assumed): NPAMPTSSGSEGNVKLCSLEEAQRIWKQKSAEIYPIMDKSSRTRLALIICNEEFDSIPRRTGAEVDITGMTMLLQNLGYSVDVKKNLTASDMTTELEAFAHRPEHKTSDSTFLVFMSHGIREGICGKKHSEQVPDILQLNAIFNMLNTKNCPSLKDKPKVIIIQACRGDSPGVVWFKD
T2 sequence (P29466 317-404 limits assumed): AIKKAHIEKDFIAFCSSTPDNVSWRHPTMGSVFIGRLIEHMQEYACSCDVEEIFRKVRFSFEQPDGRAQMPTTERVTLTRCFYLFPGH
Procedure: ICE Colorimetric Dose-Response (IC50) Assay
as §1, §2

[3] = molecular target: T2, ICE (interleukin-1β converting enzyme, Caspase-1); assay: ICE Ki fluorescence assay (Ac-Tyr-Val-Ala-Asp-AMC hydrolysis); type: biochemical; details: ICE 0.24 nM, 15 μM Ac-Tyr-Val-Ala-Asp-AMC, reversible competitive model
Procedure: Substrate hydrolysis is monitored for 300 seconds by observing the fluorescence of released AMC using excitation at 380 nm and emission at 460 nm. Mean rates of substrate hydrolysis are evaluated by linear-regression analysis of the fluorescence vs time traces. To evaluate Ki, plots of percent inhibition vs inhibitor concentration are fit by non-linear regression to a reversible, competitive model: [formula]
Where the competition factor (1+[S]/KM)=2.

| melting point [°C] | IC50 [1] [µM] | IC50 [2] [µM] | Ki [3] | SMILES |
| --- | --- | --- | --- | --- |
| 96 to 104 | 8590 | 245 | 34.5 µM and 32 µM | O=C(O)CC(NC(=O)OCc1ccccc1)C(=O)CNS(=O)(=O)CCCc1ccccc1 (stereo not shown) [Example 2b, 3-Benzloxycarbonylamino-4-oxo-5-(3-phenylpropane-1-sulfonylamino)-pentanoic acid] |
| – | 3.2 | 0.002 | 0.00061 µM | CC(C)C(NC(=O)C(CCC(=O)O)NC(=O)OCc1ccccc1)C(=O)NC(CC(=O)O)C(=O)CNS(=O)(=O)CC12CCC(CC1=O)C2(C)C (stereo not shown) [Example 4f, 3-[2-(2-Benzyloxycarbonylamino-4-carboxy-butyrylamino)-3-methyl-butyrylamino]-5-(7,7-dimethyl-2-oxo-bicyclo[2.2.1]hept-1-ylmethanesulfonylamino)-4-oxo-pentanoic acid] |
| – | 252 | 165 | 20 µM | O=C(O)C[C@H](NC(=O)CN1CCc2ccccc2C1=O)C(=O)CNS(=O)(=O)CC12CCC(CC1)C2 [Example 5b, (S)-5-(Bicyclo[2.2.1]hept-1-ylmethanesulfonylamino)-4-oxo-3-[2-(1-oxo-3,4-dihydro-1H-isoquinolin-2-yl)-acetylamino]-pentanoic acid] |
